PMC6985185 (Breast cancer research and treatment, 2019)

Legend:
[1] = system: TamR xenograft tumors; test: TamR Study 2: growth of tamoxifen-resistant xenograft tumors under oral SERDs
[2] = system: uterus; test: Uterine wet weight in LTED tumor bearing mice; format: in vivo, Nu:J mice; conditions: ovariectomized LTED tumor bearing mice, after 4 weeks of treatment at the LTED study doses

With CC/C(=C(/c1ccc(/C=C/C(=O)O)cc1)c1ccc2[nH]ncc2c1)c1ccc(F)cc1Cl [GDC0810] the “% tumor growth inhibition of TamR tumors” value ([1]; GDC0810 25 mg/kg po qd, day 0 of treatment) was −5%, the “% tumor growth inhibition of TamR tumors” value ([1]; GDC0810 25 mg/kg po qd, day 2 of treatment) was 11% and the “% tumor growth inhibition of TamR tumors” value ([1]; GDC0810 25 mg/kg po qd, day 4 of treatment) was 22%. The “% tumor growth inhibition of TamR tumors” value ([1]; GDC0810 25 mg/kg po qd, day 7 of treatment) was 28%, the “% tumor growth inhibition of TamR tumors” value ([1]; GDC0810 25 mg/kg po qd, day 9 of treatment) was 27% and the “% tumor growth inhibition of TamR tumors” value ([1]; GDC0810 25 mg/kg po qd, day 11 of treatment) was 35%. For the same molecule, the “% tumor growth inhibition of TamR tumors” value ([1]; GDC0810 25 mg/kg po qd, day 14 of treatment) was 32%, the “% tumor growth inhibition of TamR tumors” value ([1]; GDC0810 25 mg/kg po qd, day 16 of treatment) was 42% and the “% tumor growth inhibition of TamR tumors” value ([1]; GDC0810 25 mg/kg po qd, day 18 of treatment) was 51%. For the same molecule, the “% tumor growth inhibition of TamR tumors” value ([1]; GDC0810 25 mg/kg po qd, day 21 of treatment) was 49%, the “% tumor growth inhibition of TamR tumors” value ([1]; GDC0810 25 mg/kg po qd, day 23 of treatment) was 53% and the “% tumor growth inhibition of TamR tumors” value ([1]; GDC0810 25 mg/kg po qd, day 25 of treatment) was 53%. The “% tumor growth inhibition of TamR tumors” value ([1]; GDC0810 25 mg/kg po qd, day 28 of treatment) was 52% and the “Uterine wet weight (measure of uterine stimulation)” value (from here on “Uterine wet weight”) [2] was “significantly increased uterine weight”.

With C[C@@H]1Cc2c([nH]c3ccccc23)[C@@H](c2c(F)cc(/C=C/C(=O)O)cc2F)N1CC(C)(C)F [AZD9496] the “% tumor growth inhibition of TamR tumors” value ([1]; AZD9496 10 mg/kg po qd, day 0 of treatment) was −3%, the “% tumor growth inhibition of TamR tumors” value ([1]; AZD9496 10 mg/kg po qd, day 2 of treatment) was 13% and the “% tumor growth inhibition of TamR tumors” value ([1]; AZD9496 10 mg/kg po qd, day 4 of treatment) was 18%. For the same molecule, the “% tumor growth inhibition of TamR tumors” value ([1]; AZD9496 10 mg/kg po qd, day 7 of treatment) was 27%, the “% tumor growth inhibition of TamR tumors” value ([1]; AZD9496 10 mg/kg po qd, day 9 of treatment) was 24% and the “% tumor growth inhibition of TamR tumors” value ([1]; AZD9496 10 mg/kg po qd, day 11 of treatment) was 30%. The “% tumor growth inhibition of TamR tumors” value ([1]; AZD9496 10 mg/kg po qd, day 14 of treatment) was 31%, the “% tumor growth inhibition of TamR tumors” value ([1]; AZD9496 10 mg/kg po qd, day 16 of treatment) was 32% and the “% tumor growth inhibition of TamR tumors” value ([1]; AZD9496 10 mg/kg po qd, day 18 of treatment) was 36%. For the same molecule, the “% tumor growth inhibition of TamR tumors” value ([1]; AZD9496 10 mg/kg po qd, day 21 of treatment) was 43%, the “% tumor growth inhibition of TamR tumors” value ([1]; AZD9496 10 mg/kg po qd, day 23 of treatment) was 47% and the “% tumor growth inhibition of TamR tumors” value ([1]; AZD9496 10 mg/kg po qd, day 25 of treatment) was 46%. For the same molecule, the “% tumor growth inhibition of TamR tumors” value ([1]; AZD9496 10 mg/kg po qd, day 28 of treatment) was 43% and the “Uterine wet weight” value [2] was “significantly increased uterine weight”.

N#Cc1ccc(C(c2ccc(C#N)cc2)n2cncn2)cc1 [Letrozole, letrozole] was tested, and the “Uterine wet weight” value [2] was “no response of uterine weight”.
